Assay results from patent publication US20160106711A1, “3-3-Di-Substituted-Oxindoles as Inhibitors of Translation Initiation” (President and Fellows of Harvard College, priority 2012, published 2016).

Assays:
[1] = test system: CRL-2351; assay: Cell growth assay (sulforhodamine B), CRL-2351 cells; assay type: cell-based, human; conditions: Homo sapiens, 120 h, 5 days, SRB
Method: (§1) Adherent mouse (KLN) and human solid tumor cells (CRL-2351, and CRL-2813) were plated in 96-well plates and maintained for 5 days in the presence of 0.54 to 6 μM of individual compound, and cell proliferation was measured by the sulforhodamine B (SRB) assay as described in ref. 11: briefly, cells were fixed in 10% cold trichloroacetic acid at 4° C. for 1 h, extensively washed with double-distilled H2O and air-dried. Plates were then incubated with 0.4% SRB in 1% acetic acid for 1 h, washed with 1% acetic acid to remove the unbound dye, and air-dried. The bound dye was solubilized by addition of 10 mM Tris (pH 10), and the absorbance was determined in a Titertek Multiscan plate reader at 490 nm. The data calculations were carried out as described (the values for mean±SD of data from replicate wells are calculated): data are expressed in terms of % T/C [(OD of treated cells/OD of control cells)×100], as a measure of cell viability and survival in the presence of test materials. Calculations are also made for the concentration of test agents giving a T/C value of 50%, or 50% growth inhibition (IC50). With the SRB assay, a measure is made of the cell population density at time 0 (the time at which drugs are added) from two extra reference plates of inoculated cells fixed with TCA just prior to drug addition to the test plates. Thus, we have three measurements: control optical density (C), test optical density (T), and optical density at time zero (T0). The calculation is 100×[(T−T0)/(C−T0)]. If T is less than T0, cell killing has occurred and can be calculated from 100×[(T−T0)/T0]. Thus, for each drug-cell line combination, a dose-response curve is generated and three levels of effect are calculated.

[2] = test system: CRL-2813; assay: Cell growth assay (sulforhodamine B), CRL-2813 cells; assay type: cell-based, human; conditions: Homo sapiens, CRL2813, 120 h, 5 days, SRB
Method: as §1

[3] = test system: eIF2•GTP•Met-tRNAi ternary complex; assay: Ternary complex assay (ATF-4 assay), dual luciferase firefly/renilla ratio; assay type: cell-based, mouse; conditions: Mus musculus; for maximal fold induction at 40 µM: read-out: ATF-4 Xmax @ 40 μM
Excerpt: For assay development, a bi-directional plasmid was designed in which a common promoter/enhancer complex drives the transcription of firefly luciferase (F-luc) ORF fused to the 5′ untranslated region (UTR) of ATF-4, and of the renilla luciferase (R-luc) ORF fused to a 90-nucleotide 5′ UTR derived from the plasmid (FIG. 6A). Because the tetracycline-regulated transactivator ((tTA), required for driving transcription from this vector) is not normally expressed in the mammalian cells, stable KLN cancer cells were constructed that expressed tTA (KLN-tTA).
The KLN-tTA colonies that drove expression of reporter genes from pBISA-DL plasmid were selected by transient transfection and dual luciferase assay. One of these KLN-tTA cell lines was transfected with the pBISA-DL^(ATF-4) expression vector, stable colonies were selected by dual luciferase assay and expanded.
Plasmids and Ternary Complex Assay
(ATF-4 Assay). Briefly, bi-directional mammalian expression vector pBI (Clontech, CA) was modified to expand the multiple cloning sites (MCSs) and designated thereafter as pBISA. This vector contains seven copies of the tetracycline-regulated transactivator response element (TRE), which together act as core promoter/enhancer. The TRE is flanked on both sides by minimal human cytomegalovirus (CMV) minimal promoters allowing bi-directional transcription and two MCSs. Firefly and renilla luciferases were subcloned into MCS-I and MCS-II, respectively. This plasmid, designated pBISA-DL, transcribes two mRNAs that contain the 90 nucleotide plasmid derived 5′UTR (same sequence in both mRNAs), and the ORF encoding either firefly or renilla luciferase followed by a polyadenylation sequence as described in Ziegeler, G.; Ming, J.; Koseki, J. C.; Sevinc, S.; Chen, T.; Ergun, S.; Qin, X.; Aktas, B. H. J. Biol. Chem. 2010, 285, 15408 hereby incorporated by reference. This plasmid was further modified by inserting the 5′UTR of ATF-4 into MCS-I in front of the firefly luciferase mRNA. Transcription from this direction generates an mRNA that contains the firefly luciferase ORF preceded by a 5′UTR composed of 90 nucleotides derived from the plasmid and 267 nucleotides derived from the 5′UTR of ATF-4 mRNA. Transcription from the other direction generates an mRNA that contains the renilla luciferase ORF proceeded only by the 90-nucleotide plasmid-derived sequence in the 5′UTR. This expression plasmid is called pBISA-DL(ATF-4). In the dual luciferase assay, cells expressing firefly and renilla luciferases were lysed and the extracts assayed with a Dual-Glo Luciferase assay kit, per manufacturer's instruction (Promega Inc., Madison, Wis.). The data calculations were carried out as the ratio of firefly to renilla luciferase signal as described in Chen, T.; Ozel, D.; Qiao, Y.; Harbinski, F.; Chen, L.; Denoyelle, S.; He, X.; Zvereva, N.; Supko, J. G.; Chorev, M.; Halperin, J. A.; Aktas, B. H. Nat. Chem. Biol. 2011, 7, 610 hereby incorporated by reference.

[4] = test system: KLN; assay: Cell growth assay (sulforhodamine B), KLN cells; assay type: cell-based, mouse; conditions: Mus musculus, 120 h, 5 days, SRB
Method: as §1, with “Adherent mouse (KLN) and human solid tumor cells (CRL-2351, and CRL-2813) were plated in 96-well plates and maintained for 5 days in the presence of 0.54 to 6 μM of individual compound, and cell proliferation was measured by the sulforhodamine B (SRB) assay as described in ref. 11: briefly, cells were fixed in 10% cold trichloroacetic acid at 4° C. for 1 h, extensively washed with double-distilled H2O and air-dried.” left out

## CN(C)CCN1C(=O)C(c2cc(C(C)(C)C)ccc2O)(c2cc(C(C)(C)C)ccc2O)c2ccccc21 [HY087]
[1]
  IC50: 2.7 ± 0.2 µM
[2]
  IC50: > 20 µM
[3]; read-out: ATF-4 Xmax
  maximal fold induction at 20 µM: 7.12 ± 1.3
[4]
  IC50: > 20 µM

## CC(C)(C)c1ccc(OCCN2CCCC2)c(C2(c3cc(C(C)(C)C)ccc3OCCN3CCCC3)C(=O)N(CCN3CCCC3)c3ccccc32)c1 [HY193]
[1]
  IC50: 0.55 ± 0.17 µM
[2]
  IC50: 1.47 ± 1 µM
[3]; 2.5 uM, read-out: ATF-4 Xmax
  maximal fold induction at 2.5 µM: 12.1 ± 1.8
[3]
  maximal fold induction at 40 µM: 9.09
[4]
  IC50: 2.11 ± 1.1 µM

## CN1CCN(CCOc2ccc(C(C)(C)C)cc2C2(c3cc(C(C)(C)C)ccc3O)C(=O)Nc3ccccc32)CC1 (stereo not shown) [HY080]
[1]
  IC50: 0.75 ± 0.1 µM
[2]
  IC50: 1.4 ± 0.5 µM
[3]; read-out: ATF-4 Xmax
  maximal fold induction at 20 µM: 24.6 ± 3.37
[4]
  IC50: 2.9 ± 0.8 µM

## COc1ccc(C2(c3cc(OC(C)C)ccc3OCCN3CCOCC3)C(=O)Nc3ccccc32)cc1 (stereo not shown) [Sd179, 3-(4-Methoxyphenyl)-3-{2-[2-(morpholin-4-yl)ethoxy]-5-(propan-2-yloxy)phenyl}-indol-2-one]
[1]
  IC50: 8.6 ± 1 µM
[2]
  IC50: 13.4 ± 0.7 µM
[3]; read-out: ATF-4 Xmax
  maximal fold induction at 80 µM: 2.6 ± 0.14
[4]
  IC50: 11.8 ± 1 µM

## COc1ccc(C2(c3cc(C(C)(C)C)ccc3O)C(=O)Nc3ccccc32)cc1 (stereo not shown) [Sd086]
[1]
  IC50: 2.65 ± 0.1 µM
[2]
  IC50: 2.75 ± 0.1 µM
[3]
  maximal fold induction at 40 µM: 5.6 ± 0.5
[4]
  IC50: 15.7 ± 1.1 µM

## COc1ccc(C2(c3cc(C(C)(C)C)ccc3OCCN3CCOCC3)C(=O)Nc3ccccc32)cc1OC (stereo not shown) [Sd152, 3-{5-tert-butyl-2-[2-(morpholin-4-yl)ethoxy]phenyl}-3-(3,4-dimethoxyphenyl)-indol-2-one]
[1]
  IC50: > 20 µM
[2]
  IC50: > 20 µM
[3]; read-out: ATF-4 Xmax
  maximal fold induction at 80 µM: 2.8
[4]
  IC50: > 20 µM

## O=C1Nc2ccccc2C1(c1cc(C2CCCC2)ccc1OCCO)c1cc(C2CCCC2)ccc1OCCO [HY058]
[1]
  IC50: 2.4 ± 0.1 µM
[2]
  IC50: 1.3 ± 0.4 µM
[3]; read-out: ATF-4 Xmax
  maximal fold induction at 20 µM: 3.35 ± 0.74
[4]
  IC50: 15.2 ± 1.1 µM

## O=C1Nc2c(ccc(F)c2F)C1(c1ccc(O)cc1)c1ccc(O)cc1 [SD132]
[1]
  IC50: > 20 µM
[2]
  IC50: 3.74 ± 0.28 µM
[3]; read-out: ATF-4 Xmax
  maximal fold induction at 80 µM: 8.8 ± 1.97
[4]
  IC50: > 20 µM

## CC(C)(C)c1ccc(O)c(C2(c3cc(C(C)(C)C)ccc3OCCN3CCOCC3)C(=O)Nc3ccccc32)c1 (stereo not shown) [HY063]
[1]
  IC50: 1.6 ± 0.2 µM
[2]
  IC50: 3.2 ± 0.2 µM
[3]
  maximal fold induction at 40 µM: 4.4 ± 1.5
[4]
  IC50: 7.4 ± 2.5 µM

## COc1ccc(C2(c3cc(C(C)(C)C)ccc3OCCN3CCOCC3)C(=O)Nc3ccc(I)cc32)cc1 (stereo not shown) [Sd204, 3-{5-tert-butyl-2-[2-(morpholin-4-yl)ethoxy]phenyl}-5-iodo-3-(4-methoxyphenyl)indol-2-one]
[1]
  IC50: 6.1 ± 1.7 µM
[2]
  IC50: 2.6 ± 0.4 µM
[3]
  maximal fold induction at 40 µM: 4.5 ± 0.93
[4]
  IC50: 12 ± 1.2 µM

## COc1ccc(C2(c3cc(C(C)(C)C)ccc3OCCN3CCOCC3)C(=O)Nc3ccccc32)cc1 (stereo not shown) [Sd139, 3-{5-tert-butyl-2-[2-(morpholin-4-yl)ethoxy]phenyl}-3-(4-methoxyphenyl)-indol-2-one]
[1]
  IC50: 2.65 ± 1.5 µM
[2]
  IC50: 2.4 ± 0.9 µM
[3]
  maximal fold induction at 40 µM: 6.3 ± 0.3
[4]
  IC50: 4.3 ± 1 µM

## COc1ccc(C2(c3cc(C(C)(C)C)ccc3OCCN3CCOCC3)C(=O)Nc3ccccc32)cc1F (stereo not shown) [Sd205]
[1]
  IC50: 2.5 ± 0.6 µM
[2]
  IC50: 2.7 ± 0.4 µM
[3]; read-out: ATF-4 Xmax
  maximal fold induction at 80 µM: 5.2 ± 2.1
[4]
  IC50: 3.4 ± 1.2 µM

## C#CCOc1ccc(C(C)(C)C)cc1C1(c2ccccc2)C(=O)Nc2ccccc21 (stereo not shown) [Sd123, 3-[5-tert-butyl-2-(prop-2-yn-1-yloxy)phenyl]-3-phenylindol-2-one]
[1]
  IC50: 17.5 ± 2 µM
[2]
  IC50: > 20 µM
[3]; read-out: ATF-4 Xmax
  maximal fold induction at 80 µM: 5.1 ± 1.65
[4]
  IC50: > 20 µM

## CCCN1C(=O)C(c2cc(C(C)(C)C)ccc2O)(c2cc(C(C)(C)C)ccc2OCCN2CCCC2)c2ccccc21 (stereo not shown) [HY098]
[1]
  IC50: 0.3 ± 0.1 µM
[2]
  IC50: 0.9 ± 0.2 µM
[3]; 10 uM, read-out: ATF-4 Xmax
  maximal fold induction at 10 µM: 8.7 ± 1.2
[4]
  IC50: 0.5 ± 0.2 µM

## CC(C)(C)c1ccc(OCCN2CCNCC2)c(C2(c3ccccc3)C(=O)Nc3ccccc32)c1 (stereo not shown) [Sd049, 33-{5-tert-butyl-2-[2-(piperazin-1-yl)ethoxy]phenyl}-3-phenylindol-2-one]
[1]
  IC50: 0.9 ± 0.1 µM
[2]
  IC50: 12.8 ± 0.8 µM
[3]; read-out: ATF-4 Xmax
  maximal fold induction at 20 µM: 2.1 ± 0.65
[4]
  IC50: 1.2 ± 0.3 µM

## CC(C)(C)c1ccc(O)c(C2(c3ccccc3)C(=O)Nc3ccc(OC(F)(F)F)cc32)c1 (stereo not shown) [Sd224]
[1]
  IC50: 2.5 ± 0.9 µM
[2]
  IC50: 1 µM
[3]
  maximal fold induction at 40 µM: 2.56 ± 0.3
[4]
  IC50: 8 µM

## O=C1Nc2ccccc2C1(c1ccccc1)c1cc(C2CCCC2)ccc1O (stereo not shown) [Compound 1289, reference compound]
[1]
  IC50: 3.2 ± 1 µM
[2]
  IC50: 2.5 ± 0.3 µM
[3]
  maximal fold induction at 40 µM: 2.87 ± 2.19
[4]
  IC50: 16 ± 2.2 µM

## CC(C)Oc1ccc(O)c(C2(c3cc(OC(C)C)ccc3O)C(=O)Nc3ccccc32)c1 [HY037, 3,3-Bis(2-Hydroxy-5-Isopropoxyphenyl)Indolin-2-One]
[1]
  IC50: 3.6 ± 0.6 µM
[2]
  IC50: 5.6 ± 0.8 µM
[3]; read-out: ATF-4 Xmax
  maximal fold induction at 80 µM: 2.79 ± 0.9
[4]
  IC50: > 20 µM

## COc1ccc(C2(c3cc(C(C)(C)C)ccc3O)C(=O)Nc3c2ccc(F)c3F)cc1 (stereo not shown) [Sd140]
[1]
  IC50: 0.95 ± 0.08 µM
[2]
  IC50: 3 µM
[3]
  maximal fold induction at 40 µM: 1.2 ± 0.46
[4]
  IC50: 12.3 ± 2 µM

## CC(C)(C)c1ccc(O)c(C2(c3cccnc3)C(=O)Nc3ccccc32)c1 (stereo not shown) [HY003, 3-(5-tert-Butyl-2-Hydroxyphenyl)-3-(Pyridin-3-yl)Indolin-2-One]
[1]
  IC50: 6.4 ± 3 µM
[2]
  IC50: 11.5 ± 1.8 µM
[3]; read-out: ATF-4 Xmax
  maximal fold induction at 80 µM: 1.67
[4]
  IC50: > 20 µM

## CC(C)(C)c1ccc(OCCN2CCOCC2)c(C2(c3ccccc3)C(=O)Nc3ccccc32)c1 (stereo not shown) [Sd029, 3-(5-tert-Butyl-2-(2-morpholinoethoxy)phenyl)-3-phenylindolin-2-one]
[1]
  IC50: 3.35 ± 0.3 µM
[2]
  IC50: 2.4 ± 0.3 µM
[3]
  maximal fold induction at 40 µM: 4 ± 0.1
[4]
  IC50: 6.8 ± 3.7 µM
